For 20 compounds, IC50 results are on record in US9987255B2, “5,5-bicyclic oxazole orexin receptor antagonists” (Merck Sharp & Dohme Corp., priority 2014, dated 2018).

Bounds are passed on as bounds.

One assay concerns the target hOX1R (Homo sapiens, UniProt O43613). Kind of assay: FLIPR Ca2+ flux assay, orexin-1 receptor. Format: cell-based. To be noted: CHO cells expressing the receptor; agonist 70 pM Ala-6,12 orexin-A. A general note: A change in cytosolic calcium serves as a functional read-out for many receptors and channels.
Assay [1] concerns the target human orexin-2 receptor (hOX2R) (Homo sapiens (Human), UniProt O43614). The assay can be described thus: FLIPR Ca2+ flux assay, orexin-2 receptor. The assay is classed as cell-based. To be noted: CHO cells expressing the receptor; agonist 70 pM Ala-6,12 orexin-A. How it is done: The utility of the compounds in accordance with the present invention as orexin receptor OX1R and/or OX2R antagonists may be readily determined without undue experimentation by methodology well known in the art, including the “FLIPR Ca^2+ Flux Assay” (Okumura et al., Biochem. Biophys. Res. Comm. 280:976-981, 2001). In a typical experiment the OX1 and OX2 receptor antagonistic activity of the compounds of the present invention was determined in accordance with the following experimental method. For intracellular calcium measurements, Chinese hamster ovary (CHO) cells expressing the rat orexin-1 receptor or the human orexin-2 receptor, are grown in Iscove's modified DMEM containing 2 mM L-glutamine, […], 1% hypoxanthine-thymidine supplement, 100 U/ml penicillin, 100 μg/ml streptomycin and 10% heat-inactivated fetal calf serum (FCS). The cells are seeded at 20,000 cells/well into Becton-Dickinson black 384-well clear bottom sterile plates coated with poly-D-lysine. All reagents were from GIBCO-Invitrogen Corp. The seeded plates are incubated overnight at 37° C. and 5% CO2. Ala-6,12 human orexin-A as the agonist is prepared as a 1 mM stock solution in 1% bovine serum albumin (BSA) and diluted in assay buffer (HBSS containing 20 mM HEPES, 0.1% BSA and 2.5 mM probenecid, pH7.4) for use in the assay at a final concentration of 70 pM. Test compounds are prepared as 10 mM stock solution in DMSO, then diluted in 384-well plates, first in DMSO, then assay buffer. On the day of the assay, cells are washed 3 times with 100 μl assay buffer and then incubated for 60 min (37° C., 5% CO2) in 60 μl assay buffer containing 1 μM Fluo-4AM ester, 0.02% pluronic acid, and 1% BSA. The dye loading solution is then aspirated and cells are washed 3 times with 100 μl assay buffer. 30 μl of that same buffer is left in each well. Within the Fluorescent Imaging Plate Reader (FLIPR, Molecular Devices), test compounds are added to the plate in a volume of 25 μl, incubated for 5 min and finally 25 μl of agonist is added. Fluorescence is measured for each well at 1 second intervals for 5 minutes and the height of each fluorescence peak is compared to the height of the fluorescence peak induced by 70 pM Ala-6,12 orexin-A with buffer in place of antagonist. For each antagonist, IC50 value (the concentration of compound needed to inhibit 50% of the agonist response) is determined. Alternatively, compound potency can be assessed by a radioligand binding assay (described in Bergman et. al. Bioorg. Med. Chem. Lett. 2008, 18, 1425-1430) in which the inhibition constant (Ki) is determined in membranes prepared from CHO cells expressing either the OX1 or OX2 receptor. The intrinsic orexin receptor antagonist activity of a compound which may be used in the present invention may be determined by these assays.

Chain of human orexin-2 receptor (hOX2R) (O43614 whole entry): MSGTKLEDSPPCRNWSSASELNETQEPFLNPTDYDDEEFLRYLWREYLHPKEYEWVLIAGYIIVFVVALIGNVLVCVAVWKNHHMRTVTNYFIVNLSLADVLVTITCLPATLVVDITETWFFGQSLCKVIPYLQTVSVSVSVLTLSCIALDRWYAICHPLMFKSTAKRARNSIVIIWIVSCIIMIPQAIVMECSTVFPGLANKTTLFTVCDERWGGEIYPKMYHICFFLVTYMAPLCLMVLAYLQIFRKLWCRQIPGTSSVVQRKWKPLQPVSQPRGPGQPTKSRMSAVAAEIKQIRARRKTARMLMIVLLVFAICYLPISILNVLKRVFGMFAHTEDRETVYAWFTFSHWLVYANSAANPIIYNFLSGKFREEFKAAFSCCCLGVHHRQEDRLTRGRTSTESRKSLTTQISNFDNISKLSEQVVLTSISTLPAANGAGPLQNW

By IC50 is commonly meant the concentration needed to halve the response being measured. Turning to `Cc1oc(N2CC3CN(C(=O)c4nccnc4N4CCCC4)CC3C2)nc1C(C)(C)O` (stereo not shown) [Example 20, 2-(5-methyl-2-{5-[(3-pyrrolidin-1-ylpyrazin-2-yl)carbonyl]hexahydropyrrolo[3,4-c]pyrrol-2(1H)-yl}-1,3-oxazol-4-yl) propan-2-ol], the results for the IC50 (on hOX1R; in assay [1]) were more than 10 µM and 252 nM, respectively.

As to `Cc1oc(N2CC3CN(C(=O)c4ccccc4C4CC4)CC3C2)nc1C(C)(C)O` (stereo not shown) [Example 11, 2-(2-{5-[(2-cyclopropylphenyl)carbonyl]hexahydropyrrolo[3,4-c]pyrrol-2(1H)-yl}-5-methyl-1,3-oxazol-4-yl)propan-2-ol], the IC50 was more than 10 µM at hOX1R and 87 nM in assay [1].

Regarding `Cc1oc(N2CC3CN(C(=O)c4cccnc4-n4cccn4)CC3C2)nc1C(C)(C)O` (stereo not shown) [Example 18, 2-{5-methyl-2-[5-{[2-(1H-pyrazol-1-yl)pyridin-3-yl]carbonyl}hexahydropyrrolo [3,4-c]pyrrol-2(1H)-yl]-1,3-oxazol-4-yl}propan-2-ol], the IC50 is 9.85 µM at hOX1R and 35 nM in assay [1].

In the case of `Cc1oc(N2CC3CN(C(=O)c4ccc(F)cc4-n4nccn4)CC3C2)nc1C(C)(C)O` (stereo not shown) [Example 16, 2-{2-[5-{[4-fluoro-2-(2H-1,2,3-triazol-2-yl)phenyl]carbonyl}hexahydropyrrolo [3,4-c]pyrrol-2(1H)-yl]-5-methyl-1,3-oxazol-4-yl}propan-2-ol], the values for the IC50 (on hOX1R; in assay [1]) were 3.07 µM and 32 nM, respectively.

As to `Cc1oc(N2CC3CN(C(=O)c4ccccc4N4CCCC4)CC3C2)nc1C(C)(C)O` (stereo not shown) [Example 13, 2-(5-methyl-2-{5-[(2-pyrrolidin-1-ylphenyl)carbonyl]hexahydropyrrolo [3,4-c]pyrrol-2(1H)-yl}-1,3-oxazol-4-yl)propan-2-ol], the IC50 on hOX1R was more than 10 µM; in assay [1], 49 nM.

As to `Cc1oc(N2CC3CN(C(=O)c4ccccc4-n4cccn4)CC3C2)nc1C(C)(C)O` (stereo not shown) [Example 14, 2-{5-methyl-2-[5-{(2-(1H-pyrazol-1-yl)phenyl]carbonyl}hexahydropyrrolo [3,4-c]pyrrol-2(1H)-yl]-1,3-oxazol-4-yl}propan-2-ol], the results for the IC50 (on hOX1R; in assay [1]) were more than 10 µM and 72 nM, respectively.

As for `Cc1oc(N2CC3CN(C(=O)c4cccnc4OCC(F)(F)F)CC3C2)nc1C(C)(C)O` (stereo not shown) [Example 3, 2-{5-methyl-2-[5-{[2-(2,2,2-trifluoroethoxy)pyridin-3-yl]carbonyl}hexahydropyrrolo [3,4-c]pyrrol-2(1H)-yl]-1,3-oxazol-4-yl}propan-2-ol], the IC50 is more than 10 µM at hOX1R and 106 nM in assay [1].

As for `Cc1oc(N2CC3CN(C(=O)c4ccccc4C4CC4(F)F)CC3C2)nc1C(C)(C)O` (stereo not shown) [Example 24, 2-{2-[5-{[2-(2,2-difluorocyclopropyl)phenyl]carbonyl}hexahydropyrrolo[3,4-c]pyrrol-2(1H)-yl]-5-methyl-1,3-oxazol-4-yl}propan-2-ol], the IC50 at hOX1R is more than 10 µM; in assay [1], 22 nM.

For the compound `Cc1oc(N2CC3CN(C(=O)c4nccnc4-n4cccn4)CC3C2)nc1C(C)(C)O` (stereo not shown) [Example 21, 2-{5-methyl-2-[5-{[3-(1H-pyrazol-1-yl)pyrazin-2-yl]carbonyl}hexahydropyrrolo[3,4-c]pyrrol-2(1H)-yl]-1,3-oxazol-4-yl} propan-2-ol], the IC50 on hOX1R was more than 10 µM; in assay [1], 112 nM.

Take `Cc1oc(N2CC3CN(C(=O)c4ccccc4OCC(F)(F)F)CC3C2)nc1C(C)(C)O` (stereo not shown) [Example 7, 2-{5-methyl-2-[5-{[2-(2,2,2-trifluoroethoxy)phenyl]carbonyl}hexahydropyrrolo[3,4-c]pyrrol-2(1H)-yl]-1,3-oxazol-4-yl} propan-2-ol]: the IC50 on hOX1R was more than 10 µM; in assay [1], 165 nM.

Regarding `Cc1oc(N2CC3CN(C(=O)c4ccccc4C4CCC4)CC3C2)nc1C(C)(C)O` (stereo not shown) [Example 12, 2-(2-{5-[(2-cyclobutylphenyl)carbonyl]hexahydropyrrolo[3,4-c]pyrrol-2(1H)-yl}-5-methyl-1,3-oxazol-4-yl)propan-2-ol], the IC50 at hOX1R stood at 5.3 µM; in assay [1], 23 nM.

`Cc1oc(N2CC3CN(C(=O)c4ccccc4-n4nccn4)CC3C2)nc1C(C)(C)O` (stereo not shown) [Example 1, (2-(2H-1,2,3-triazol-2-yl)phenyl)(5-(4-(2-hydroxypropan-2-yl)-5-methyloxazol-2-yl)hexahydropyrrolo[3,4-c]pyrrol-2(1H)-yl)methanone]: the IC50 on hOX1R stood at 6.88 µM; in assay [1], 27 nM.

With `Cc1oc(N2CC3CN(C(=O)c4ncccc4-c4ccccc4)CC3C2)nc1C(C)(C)O` (stereo not shown) [Example 5, 2-(5-methyl-2-{5-[(3-phenylpyridin-2-yl)carbonyl]hexahydropyrrolo[3,4-c]pyrrol-2(1H)-yl}-1,3-oxazol-4-yl) propan-2-ol], the IC50 at hOX1R is more than 10 µM; in assay [1], 583 nM.

In the case of `Cc1oc(N2CC3CN(C(=O)c4ccccc4OC(F)(F)F)CC3C2)nc1C(C)(C)O` (stereo not shown) [Example 4, 2-{5-methyl-2-[5-{[2-(trifluoromethoxy)phenyl]carbonyl}hexahydropyrrolo[3,4-c]pyrrol-2(1H)-yl]-1,3-oxazol-4-yl} propan-2-ol], the IC50 at hOX1R was more than 10 µM; in assay [1], 604 nM.

As to `CCOc1ncccc1C(=O)N1CC2CN(c3nc(C(C)(C)O)c(C)o3)CC2C1` (stereo not shown) [Example 2, 2-(2-{5-[(2-Ethoxypyridin-3-yl)carbonyl]hexahydropyrrolo[3,4-c]pyrrol-2(1H)-yl}-5-methyl-1,3-oxazol-4-yl)propan-2-ol], the results for the IC50 (on hOX1R; in assay [1]) were more than 10 µM and 545 nM, respectively.

As to `Cc1oc(N2CC3CN(C(=O)c4ccccc4CC(F)(F)F)CC3C2)nc1C(C)(C)O` (stereo not shown) [Example 23, 2-{5-methyl-2-[5-{(2-(2,2,2-trifluoroethyl)phenyl]carbonyl}hexahydropyrrolo[3,4-c]pyrrol-2(1H)-yl]-1,3-oxazol-4-yl} propan-2-ol], the IC50 is more than 10 µM on hOX1R and 230 nM in assay [1].

Regarding `Cc1oc(N2CC3CN(C(=O)c4ccccc4OC(F)F)CC3C2)nc1C(C)(C)O` (stereo not shown) [Example 22, 2-{2-[5-{[2-(difluoromethoxy)phenyl]carbonyl}hexahydropyrrolo[3,4-c]pyrrol-2(1H)-yl]-5-methyl-1,3-oxazol-4-yl} propan-2-ol], the IC50 on hOX1R is more than 10 µM; in assay [1] it was 101 nM.

`Cc1oc(N2CC3CN(C(=O)c4cccnc4OC(C)C)CC3C2)nc1C(C)(C)O` (stereo not shown) [Example 8, 2-{5-methyl-2-[5-{[2-(1-methylethoxy)pyriddin-3-yl]carbonyl}hexahydropyrrolo [3,4-c]pyrrol-2(1H)-yl]-1,3-oxazol-4-yl}propan-2-ol]: the IC50 at hOX1R is more than 10 µM; in assay [1], 126 nM.

`CCCc1ccccc1C(=O)N1CC2CN(c3nc(C(C)(C)O)c(C)o3)CC2C1` (stereo not shown) [Example 6, 2-(5-methyl-2-{5-[(2-propylphenyl)carbonyl]hexahydropyrrolo[3,4-c]pyrrol-2(1H)-yl}-1,3-oxazol-4-yl)propan-2-ol]: the concentration for half-maximal inhibition (IC50) at hOX1R was more than 10 µM; in assay [1], 32 nM.

Take `Cc1oc(N2CC3CN(C(=O)c4cccnc4-c4ccccc4)CC3C2)nc1C(C)(C)O` (stereo not shown) [Example 19, 2-(5-methyl-2-{5-[(2-phenylpyridin-3-yl)carbonyl]hexahydropyrrolo [3,4-c]pyrrol-2(1H)-yl}-1,3-oxazol-4-yl)propan-2-ol]: the IC50 was more than 10 µM at hOX1R and 60 nM in assay [1].
